According to ChEMBL document CHEMBL1201862, “PubChem BioAssay data set” (2004):
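How tested: cells in 96-well plates exposed to compound for 48 hours at five concentrations. Abbreviation: GI50, concentration required for 50% inhibition of growth.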 The source made the active and inactive calls. Cut-off read from the data, not from the text of the source: active = GI50 up to about 1.1 µM and inactive = higher.

Legend:
Assay in all cases: NCI-60 cell line screen, 48 h
T47D = test system: T47D
SNB-75 = test system: SNB-75
SF-295 = test system: SF-295
MCF7 = test system: MCF7
OVCAR-4 = test system: OVCAR-4
MDA-MB-435 = test system: MDA-MB-435
MOLT-4 = test system: MOLT-4
RPMI-8226 = test system: RPMI-8226
MDA-N = test system: MDA-N
SR = test system: SR
SK-MEL-2 = test system: SK-MEL-2
HCT-15 = test system: HCT-15
UO-31 = test system: UO-31
A549 = test system: A549
SK-MEL-5 = test system: SK-MEL-5
OVCAR-8 = test system: OVCAR-8
HL-60 = test system: HL-60
HT-29 = test system: HT-29
TK-10 = test system: TK-10
LOX IMVI = test system: LOX IMVI

| Compound | GI50 (T47D) | GI50 (SNB-75) | GI50 (SF-295) | GI50 (MCF7) | GI50 (OVCAR-4) | GI50 (MDA-MB-435) | GI50 (MOLT-4) | GI50 (RPMI-8226) | GI50 (MDA-N) | GI50 (SR) | GI50 (SK-MEL-2) | GI50 (HCT-15) [µM] | GI50 (UO-31) | GI50 (A549) | GI50 (SK-MEL-5) | GI50 (OVCAR-8) | GI50 (HL-60) | GI50 (HT-29) | GI50 (TK-10) | GI50 (LOX IMVI) |
| --- | --- | --- | --- | --- | --- | --- | --- | --- | --- | --- | --- | --- | --- | --- | --- | --- | --- | --- | --- | --- |
| Cc1cc(N(CCC#N)CCC#N)ccc1C(/N=N/c1ccc([N+](=O)[O-])cc1)=N\NC(=O)c1ccccc1 | 27 µM (inactive) | 48.4 µM (inactive) | 19.5 µM (inactive) | 25.8 µM (inactive) | 61 µM (inactive) | 7.82 µM (inactive) | 45.2 µM (inactive) | 75.9 µM (inactive) | 6.25 µM (inactive) | 14.2 µM (inactive) | 67 µM (inactive) | 30.1 | 34.4 µM (inactive) | 57.1 µM (inactive) | 26.4 µM (inactive) | 56.5 µM (inactive) | 32.1 µM (inactive) | 24.5 µM (inactive) | 61.9 µM (inactive) |  |
| CC(=O)NC(C)(C)C1CC=C(C)/C(=N\O)C1 (stereo unspecified) | > 100 µM (inactive) | > 100 µM (inactive) | > 100 µM (inactive) | > 100 µM (inactive) | > 100 µM (inactive) | > 100 µM (inactive) | > 100 µM (inactive) |  | > 100 µM (inactive) | > 100 µM (inactive) |  | > 100 | > 100 µM (inactive) | > 100 µM (inactive) | > 100 µM (inactive) | > 100 µM (inactive) | > 100 µM (inactive) | > 100 µM (inactive) | > 100 µM (inactive) | > 100 µM (inactive) |
| COC(=O)C1CCC(=O)N1C(c1ccc(OC)cc1)c1cc(OC)c(OC)c(OC)c1 (stereo unspecified) | > 100 µM (inactive) | 0.389 µM (active) | 0.0762 µM (active) | 0.307 µM (active) |  | 0.057 µM (active) | 0.39 µM (active) | 0.239 µM (active) | 0.104 µM (active) | 0.18 µM (active) | 0.649 µM (active) | 0.381 | 1.19 µM (inactive) | 0.449 µM (active) | 0.252 µM (active) | 0.348 µM (active) | 0.245 µM (active) | 0.255 µM (active) | > 37.8 µM (inactive) | 0.356 µM (active) |
